Reference: US7423020B2, “Treatment of mood disorders by administration of SMR1” (Institut Pasteur, priority 2001, dated 2008)
Where a SMILES comes first, the peptide text is derived from it.

Target: T1, NEP (Rattus norvegicus, UniProt P07861)
T1 construct: incubations of membrane and fresh tissue slice preparations from nervous tissues; from tissue; host or cells: rat spinal cord (dorsal zone), fresh slices or 100 000 x g membrane fraction
T1 sequence (P07861 1-750): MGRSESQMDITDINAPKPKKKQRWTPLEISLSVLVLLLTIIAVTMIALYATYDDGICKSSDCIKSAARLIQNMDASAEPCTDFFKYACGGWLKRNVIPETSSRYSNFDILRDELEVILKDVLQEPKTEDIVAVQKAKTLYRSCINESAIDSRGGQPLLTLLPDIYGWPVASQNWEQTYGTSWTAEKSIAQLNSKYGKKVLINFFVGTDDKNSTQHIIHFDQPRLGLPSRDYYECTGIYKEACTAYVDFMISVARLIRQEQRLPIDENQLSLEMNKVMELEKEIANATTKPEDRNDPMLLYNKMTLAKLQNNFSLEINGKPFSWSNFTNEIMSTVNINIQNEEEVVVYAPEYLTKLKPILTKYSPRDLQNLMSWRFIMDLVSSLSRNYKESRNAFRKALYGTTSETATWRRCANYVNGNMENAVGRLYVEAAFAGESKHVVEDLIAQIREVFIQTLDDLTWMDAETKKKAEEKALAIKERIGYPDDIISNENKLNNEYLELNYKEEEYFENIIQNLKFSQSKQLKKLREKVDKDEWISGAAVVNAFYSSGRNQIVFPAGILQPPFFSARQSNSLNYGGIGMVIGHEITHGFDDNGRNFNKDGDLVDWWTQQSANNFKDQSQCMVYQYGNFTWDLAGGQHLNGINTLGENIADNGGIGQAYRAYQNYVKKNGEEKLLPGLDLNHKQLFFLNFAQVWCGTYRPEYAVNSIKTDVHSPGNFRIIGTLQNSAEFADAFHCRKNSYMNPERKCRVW
Experiment: Met-enkephalin hydrolysis by rat spinal cord slices and membrane preparations, RP-HPLC analysis
Format: biochemical
Conditions: 10 μM; spinal cord slices; 20 min at 25° C.; Met-enkephalin 10 μM; read-out: inhibition of Met-enkephalin degradation (RP-HPLC)
Method: The organs are rapidly removed, dissected on ice, freed of nerve fibers and of adipose tissues and then washed in cold oxygenated glucose-and bicarbonate-containing Krebs Ringer (KRBG) solution, whose composition is the following: 120 mM NaCl-5 mM KCl-1.2 mM KH2PO4-27.5 mM NaHCO3-2.6 mM CaCl2-0.67 mM MgSO4-5.9 mM glucose. The slices of tissues are prepared either manually with the aid of a scalpel (1-2 mm thick), or mechanically with the aid of a “Tissue Chopper” (1 mm thick). Slices are then dispersed into reaction tubes where they are subjected to three successive washes in ice-cold oxygenated KRBG. […] The organs dissected out and washed in ice-cold KRBG are homogenized at 4° C. in 10 volumes (vol./wt.) of 50 mM Tris/HCl buffered at pH 7.2, using a Teflon-glass homogenizer (3×5 sec.). A first centrifugation of 5 min. at 1000×g and 4° C. makes it possible to remove the tissular debris and the nuclei in the pellet. A second centrifugation of the supernatant at 100 000×g and 5° C. concentrates the membrane fraction into the pellet, which will be superficially washed three times with cold Tris/HCl buffer and resuspended in fresh buffer using a Kontes homogenizer, aliquoted and stored at -80° C. while waiting to be used as enzyme source, at least until three months. For the experiments of analysis of the NEP peptidase activity, an ex vivo model using incubations of membrane and fresh tissue slice preparations from nervous tissues that are known to be appropriate for exploring NEP peptidase activity: i.e. the dorsal zone of rat spinal cord, was first developed. The metabolism rate of the NEP-sensitive peptides was measured using the both NEP substrates involved in the signaling of the nociceptive response: the neuropeptides Met-enkephalin and Substance P. […] (NEN, 12.5-25 nM) were used. The objective was to measure the NEP-specific endoproteolysis of these substrates. […] Furthermore, for studying the functional role of […] NO: 1), the reaction was carried out in the presence of the SMR1-peptide alone or combined with specific inhibitors of membrane peptidases which could inactivate the […] NO: 1) peptide by cleaving its C-terminal end: an inhibitor of carboxypeptidase […], 10 μM, Sigma) and an inhibitor of dipeptidylpeptidase IV (DPPIV inhibitor, 10 μM, Roche). […] Samples are kept at -30° C. until the measurement of their intact substrate and its metabolites content. The membrane preparations are preincubated in 50 mM Tris/HCl buffered at pH 7.2 and containing 10 μM Bestatin, at 25, 30 or 37° C. in constantly shaken water, in the presence or in the absence of NEP inhibitor. […] Samples are kept at -30° C. until the measurement of their intact substrate and its metabolites content. HPLC is a highly resolutive procedure that allows one to isolate, and detect by coupled spectrophotometer analysis, the non-radioactive peptides whose concentration is at least 1 to 10 μM. The C-18 RP-HPLC is based on the same principle as the C-18 Sep-Pak cartridge. The chromatographic analyses were used to study the hydrolysis of Met-Enkephalin, that were done on a C-18 LUNA analytical column (150×4.6 mm inner diameter, AIT) packed with 5 μm-diameter beads. […] Their identification and relative quantification (peak height) are checked by continuously monitoring the UV absorbance at 254 nm of column outflow. In first series of experiment, the slices and the membrane preparations of spinal cord tissues were incubated at 30° C. in a 1 ml final volume of KRBG, and at 37° C. in a 0.25 ml final volume of Tris/HCl 50 mM, pH 7.2, respectively.

Structure (SMILES): N=C(N)NCCC[C@H](NC(=O)[C@@H]1CCCN1C(=O)[C@H](CC(N)=O)NC(=O)[C@H](Cc1c[nH]cn1)NC(=O)[C@@H](N)CCC(N)=O)C(=O)O [SMR1-QHNPR, QHNPR] (H-QHNPR-OH; N-terminus and C-terminus assumed)
- inhibition at 10 µM: 70%
